Results reported in the supplement of paper PMC10307832.

Assays:
Assay in all cases: relative viability (nuclei count vs DMSO), 5 days (fraction); higher = more cells survive
Tipifarnib + Pictilisib = compound: Cn1cncc1[C@@](N)(c1ccc(Cl)cc1)c1ccc2c(c1)c(-c1cccc(Cl)c1)cc(=O)n2C [Tipifarnib] + CS(=O)(=O)N1CCN(Cc2cc3nc(-c4cccc5[nH]ncc45)nc(N4CCOCC4)c3s2)CC1 [Pictilisib] (partner 1 µM)
Method in brief: (§1)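 Each reported value is a median over duplicate plates. It expresses relative viability: treated-well nuclei count divided by vehicle-well nuclei count. Lung cancer cell lines in 1536-well plates were dosed by pin tool a day after seeding, alone with one drug or with a fixed anchor-drug dose plus five library-drug doses (not always all listed) in √10 steps, and nuclei were counted after 5 days.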

Tipifarnib + Linsitinib = compound: Cn1cncc1[C@@](N)(c1ccc(Cl)cc1)c1ccc2c(c1)c(-c1cccc(Cl)c1)cc(=O)n2C [Tipifarnib] + C[C@]1(O)C[C@@H](c2nc(-c3ccc4ccc(-c5ccccc5)nc4c3)c3c(N)nccn32)C1 [Linsitinib] (partner 1 µM)
Method in brief: as §1

Tipifarnib + Alpelisib = compound: Cn1cncc1[C@@](N)(c1ccc(Cl)cc1)c1ccc2c(c1)c(-c1cccc(Cl)c1)cc(=O)n2C [Tipifarnib] + Cc1nc(NC(=O)N2CCC[C@H]2C(N)=O)sc1-c1ccnc(C(C)(C)C(F)(F)F)c1 [Alpelisib] (partner 2 µM)
Method in brief: as §1

Tipifarnib + Decitabine = compound: Cn1cncc1[C@@](N)(c1ccc(Cl)cc1)c1ccc2c(c1)c(-c1cccc(Cl)c1)cc(=O)n2C [Tipifarnib] + Nc1ncn([C@H]2C[C@H](O)[C@@H](CO)O2)c(=O)n1 [Decitabine] (partner 2 µM)
Method in brief: as §1

| Cell Line | relative viability (Tipifarnib + Pictilisib; first compound 0.01 µM) | relative viability (Tipifarnib + Pictilisib; first compound 0.03162 µM) | relative viability (Tipifarnib + Pictilisib; first compound 0.1 µM) | relative viability (Tipifarnib + Pictilisib; first compound 0.3162 µM) | relative viability (Tipifarnib + Pictilisib; first compound 1 µM) | relative viability (Tipifarnib + Linsitinib; first compound 0.01 µM) | relative viability (Tipifarnib + Linsitinib; first compound 0.03162 µM) | relative viability (Tipifarnib + Linsitinib; first compound 0.1 µM) | relative viability (Tipifarnib + Linsitinib; first compound 0.3162 µM) | relative viability (Tipifarnib + Linsitinib; first compound 1 µM) | relative viability (Tipifarnib + Alpelisib; first compound 0.01 µM) | relative viability (Tipifarnib + Alpelisib; first compound 0.03162 µM) | relative viability (Tipifarnib + Alpelisib; first compound 0.1 µM) | relative viability (Tipifarnib + Alpelisib; first compound 0.3162 µM) | relative viability (Tipifarnib + Alpelisib; first compound 1 µM) | relative viability (Tipifarnib + Decitabine; first compound 0.01 µM) | relative viability (Tipifarnib + Decitabine; first compound 0.03162 µM) | relative viability (Tipifarnib + Decitabine; first compound 0.1 µM) | relative viability (Tipifarnib + Decitabine; first compound 0.3162 µM) | relative viability (Tipifarnib + Decitabine; first compound 1 µM) |
| --- | --- | --- | --- | --- | --- | --- | --- | --- | --- | --- | --- | --- | --- | --- | --- | --- | --- | --- | --- | --- |
| NCI-H1792 | 0.237 | 0.235 | 0.152 | 0.117 | 0.131 | 0.436 | 0.453 | 0.257 | 0.207 | 0.233 | 0.699 | 0.643 | 0.345 | 0.293 | 0.281 | 0.446 | 0.439 | 0.308 | 0.28 | 0.272 |
| NCI-H1355 | 0.439 | 0.401 | 0.356 | 0.301 | 0.293 | 0.861 | 0.896 | 0.649 | 0.541 | 0.69 | 0.874 | 0.804 | 0.678 | 0.518 | 0.599 | 0.372 | 0.397 | 0.328 | 0.317 | 0.321 |
| SW 1573 | 0.492 | 0.426 | 0.397 | 0.289 | 0.236 | 0.7 | 0.709 | 0.518 | 0.387 | 0.365 | 0.667 | 0.718 | 0.449 | 0.44 | 0.331 | 0.6 | 0.411 | 0.322 | 0.33 | 0.268 |
| A549 | 0.53 | 0.44 | 0.387 | 0.256 | 0.22 | 0.707 | 0.596 | 0.49 | 0.325 | 0.233 | 0.759 | 0.649 | 0.398 | 0.346 | 0.283 | 0.243 | 0.32 | 0.143 | 0.124 | 0.0674 |
| NCI-H2347 | 0.613 | 0.478 | 0.658 | 0.648 | 0.404 | 0.973 | 0.739 | 0.649 | 0.693 | 0.735 | 1.05 | 0.798 | 0.714 | 0.689 | 0.674 | 0.593 | 0.553 | 0.581 | 0.527 | 0.521 |
| LCLC-97TM1 | 0.179 | 0.147 | 0.12 | 0.193 | 0.108 | 0.204 | 0.169 | 0.174 | 0.192 | 0.169 | 0.218 | 0.181 | 0.2 | 0.17 | 0.173 | 0.242 | 0.242 | 0.308 | 0.225 | 0.205 |
| EMC-BAC-2 | 0.573 | 0.509 | 0.467 | 0.525 | 0.366 | 0.855 | 0.798 | 0.689 | 0.706 | 0.636 | 0.741 | 0.665 | 0.684 | 0.651 | 0.566 | 1.11 | 0.853 | 0.84 | 0.681 | 0.562 |
| NCI-H1975 | 0.347 | 0.293 | 0.255 | 0.228 | 0.259 | 1.07 | 1.16 | 0.876 | 0.614 | 0.714 | 0.713 | 0.599 | 0.468 | 0.329 | 0.351 | 0.425 | 0.419 | 0.37 | 0.317 | 0.317 |
| BEN | 0.543 | 0.587 | 0.543 | 0.472 | 0.417 | 1.03 | 1.18 | 0.835 | 0.696 | 0.716 | 1.14 | 0.915 | 1.06 | 0.811 | 0.769 | 0.748 | 0.759 | 0.66 | 0.699 | 0.503 |
| NCI-H23 | 0.469 | 0.448 | 0.312 | 0.268 | 0.232 | 0.747 | 0.573 | 0.44 | 0.331 | 0.39 | 0.717 | 0.791 | 0.517 | 0.454 | 0.372 | 0.333 | 0.349 | 0.307 | 0.266 | 0.281 |
| NCI-H520 | 0.283 | 0.227 | 0.243 | 0.275 | 0.166 | 1.11 | 0.849 | 0.987 | 0.673 | 0.737 | 1.11 | 0.823 | 0.845 | 0.458 | 0.471 | 0.583 | 0.469 | 0.627 | 0.401 | 0.424 |
| EPLC-272H | 0.339 | 0.265 | 0.392 | 0.283 | 0.186 | 1.17 | 1.16 | 1.21 | 0.83 | 0.531 | 1.06 | 0.823 | 0.951 | 0.613 | 0.46 | 0.426 | 0.404 | 0.37 | 0.298 | 0.246 |
| LCLC-103H | 0.566 | 0.606 | 0.617 | 0.491 | 0.469 | 1.04 | 1.02 | 1.02 | 0.802 | 0.913 | 0.949 | 0.964 | 0.924 | 0.792 | 0.768 | 0.757 | 0.672 | 0.785 | 0.635 | 0.673 |
| NCI-H2405 | 0.406 | 0.412 | 0.351 | 0.405 | 0.404 | 0.952 | 0.885 | 0.845 | 0.821 | 0.79 | 0.863 | 0.832 | 0.7 | 0.718 | 0.72 | 0.783 | 0.688 | 0.721 | 0.683 | 0.73 |
| HCC-15 | 0.629 | 0.547 | 0.556 | 0.426 | 0.224 | 0.78 | 0.751 | 0.627 | 0.544 | 0.548 | 0.827 | 0.646 | 0.584 | 0.451 | 0.367 | 0.496 | 0.523 | 0.48 | 0.263 | 0.238 |
| PC-3 [JPC-3] | 0.811 | 0.651 | 0.651 | 0.44 | 0.508 | 0.956 | 0.899 | 0.872 | 0.769 | 0.736 | 1.04 | 1 | 0.816 | 0.78 | 0.662 | 0.866 | 0.872 | 0.828 | 0.644 | 0.648 |
